Source: publication PMC2894482 (Journal of medicinal chemistry, 2009)

Key:
[1] = test system: cocaine self-administration; conditions: cited from earlier work
[2] = target: T1, mGluR5 (Rattus norvegicus, UniProt P31424); format: binding; conditions: alkyne 11 vs similarly substituted amide 34
[3] = test system: rats; assay: Preliminary in vivo testing in rats; conditions: personal communication with Dr. S. Barak Caine
[4] = target: T1, mGluR5; assay: mGluR5 radioligand binding with [3H]1, rat brain membranes
[5] = target: rat mGluR5 (Rattus norvegicus, UniProt P31424); assay: Calcium fluorescence assay; format: cell-based
rat mGluR5, sequence (P31424 21-1203): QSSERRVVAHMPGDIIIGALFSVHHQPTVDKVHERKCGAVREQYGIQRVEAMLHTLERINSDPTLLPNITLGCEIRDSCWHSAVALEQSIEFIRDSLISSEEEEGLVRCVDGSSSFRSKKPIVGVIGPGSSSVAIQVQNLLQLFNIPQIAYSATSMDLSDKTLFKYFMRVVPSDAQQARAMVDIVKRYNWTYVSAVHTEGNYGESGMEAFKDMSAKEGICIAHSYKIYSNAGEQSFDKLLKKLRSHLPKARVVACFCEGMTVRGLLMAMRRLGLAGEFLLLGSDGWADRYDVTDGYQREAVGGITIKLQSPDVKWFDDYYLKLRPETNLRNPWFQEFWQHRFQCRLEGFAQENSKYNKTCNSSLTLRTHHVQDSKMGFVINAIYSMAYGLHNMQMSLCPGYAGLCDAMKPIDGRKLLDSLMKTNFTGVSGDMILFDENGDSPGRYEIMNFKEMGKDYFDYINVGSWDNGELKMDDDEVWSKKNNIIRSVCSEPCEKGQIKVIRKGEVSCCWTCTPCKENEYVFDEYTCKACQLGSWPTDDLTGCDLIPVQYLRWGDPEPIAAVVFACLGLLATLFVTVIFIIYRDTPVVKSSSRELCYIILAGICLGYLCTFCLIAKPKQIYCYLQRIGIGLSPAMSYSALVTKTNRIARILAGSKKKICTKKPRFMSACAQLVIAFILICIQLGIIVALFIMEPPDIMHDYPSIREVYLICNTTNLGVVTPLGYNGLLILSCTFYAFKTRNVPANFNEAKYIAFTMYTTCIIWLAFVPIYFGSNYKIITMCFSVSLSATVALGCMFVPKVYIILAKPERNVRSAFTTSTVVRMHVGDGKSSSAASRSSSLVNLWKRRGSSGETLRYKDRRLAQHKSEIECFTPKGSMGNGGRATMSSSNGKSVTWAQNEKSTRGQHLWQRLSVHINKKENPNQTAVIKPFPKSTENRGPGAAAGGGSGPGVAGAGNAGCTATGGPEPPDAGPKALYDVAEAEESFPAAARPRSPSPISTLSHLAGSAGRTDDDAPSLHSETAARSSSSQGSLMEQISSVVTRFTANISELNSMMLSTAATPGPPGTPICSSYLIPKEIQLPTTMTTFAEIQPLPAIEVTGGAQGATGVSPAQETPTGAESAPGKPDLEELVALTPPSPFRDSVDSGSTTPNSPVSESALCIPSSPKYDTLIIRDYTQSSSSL

T1 sequence (P31424 21-1203): as above

| Structure (SMILES) | Ki [4] | IC50 [5] | further results |
| --- | --- | --- | --- |
| Cc1cccc(C#Cc2ccccc2)n1 [Compound 1, 2-methyl-6-(phenylethynyl)pyridine] | – | – | effect on cocaine self-administration [1]: dose-dependently decreases; effect on food intake ([1]; identical schedules of reinforcement): no effect |
| Cc1nc(C#Cc2cc(F)cc(C#N)c2)cs1 [Compound 11, 3-Fluoro-5-cyano-1-(2-methylthiazol-4-ylethynyl)benzene] | – | – | fold higher affinity at mGluR5 than the amide [2]: > 70 fold; toxicity in preliminary in vivo testing [3]: showed toxicity |
| Cc1cccc(C#Cc2ccc(-c3ccccc3)c(C#N)c2)n1 [Compound 21, 2-Phenyl-5-(6-methylpyridin-2-ylethynyl)benzonitrile] | 4 ± 0.6 nM | 3.08 ± 0.61 nM | – |
| Cc1cccc(C#Cc2ccc(-c3cccc(F)c3)c(C#N)c2)n1 [Compound 22, 2-(3-Fluorophenyl)-5-(6-methylpyridin-2-ylethynyl)benzonitrile] | 17 ± 2.2 nM | 6.1 ± 1.95 nM | – |
